Results on six compounds are retold here after publication PMC4678575 (MedChemComm, 2013).

Data set [1] in a line: Re-examination of stock solutions by LCMS. Conditions: mass loss of 18 amu, likely dehydration to indene 16. The format is physicochemical.
Data set [2] addresses first bromodomain of BRD4 (BRD4(1)) (Homo sapiens, UniProt O60885). In words: AlphaScreen peptide displacement assay, BRD4. The format is binding. Conditions: for inhibition of BRD4(1), in words: AlphaScreen using isolated bromodomains. (In general: In Alpha technology, singlet oxygen from a donor bead excites a nearby acceptor bead.)
The target of a further data set is CBP bromodomain (Homo sapiens, UniProt Q92793). In words: AlphaScreen peptide displacement assay, CBP. The format is binding. The settings on record: for affinity for the CBP bromodomain, in words: AlphaScreen using isolated bromodomains.
Chain of CBP bromodomain (Q92793 1085-1192 limits assumed): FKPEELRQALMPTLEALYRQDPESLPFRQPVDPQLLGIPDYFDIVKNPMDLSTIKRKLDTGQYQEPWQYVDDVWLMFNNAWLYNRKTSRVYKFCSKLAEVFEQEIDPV
The target of another data set is CBP (Homo sapiens, UniProt Q92793). In words: DSF thermal shift, CBP. It counts as binding.
Chain of CBP (Q92793 1085-1192 limits assumed): as above

`Cc1noc(C)c1-c1ccc2c(c1)C(O)(c1ccccc1)CC2` (stereo not drawn) [Compound 15]: in data set [1], the “chemical stability of stock solutions, in words” value is reported as “decomposition of the parent compound”.

`Cc1noc(C)c1-c1ccc2c(c1)C(=O)CC2` [Compound 6]: the “inhibition of BRD4(1), in words” value in data set [2] is given as “modest inhibitors”. The “affinity for the CBP bromodomain, in words” value on CBP bromodomain was “no affinity”.

As to `Cc1noc(C)c1-c1ccc2nc[nH]c2c1` [Compound 8], the “affinity/potency for BRD4(1) compared with CBP, in words” value in data set [2] (AlphaScreen) is given as “comparable affinity for both bromodomains”.

Turning to `Cc1noc(C)c1-c1ccc2cc[nH]c2c1` [Compound 7], the “inhibition of BRD4(1), in words” value in data set [2] is listed as “modest inhibitors”. Besides, the “affinity for the CBP bromodomain, in words” value on CBP bromodomain was “no affinity”. As for `Cc1noc(C)c1-c1ccc2c(c1)C(OCc1ccccc1)CC2` (stereo not drawn) [Compound 9], the IC50 (as a rule, the concentration that gives 50% inhibition) on CBP bromodomain was above 10 µM. For the compound `Cc1noc(C)c1-c1ccc2ncn(Cc3ccc(C#N)cc3)c2c1` [Compound 28a], in data set [2] (AlphaScreen BRD4(1) vs CBP), the “selectivity for BRD4(1) over CBP” value is reported as “at least 100 fold”. Further, at CBP, the “stabilization of CBP, in words” value is “only minimal stabilization”.
